Measurements taken from patent US11167037B2, “Antibody drug conjugate platform using bispecific antibody” (SEOUL NATIONAL UNIVERSITY R&DB FOUNDATION, priority 2016, dated 2021).
Residues, ends and D or L forms follow the SMILES beside them. Groups on a side chain read outwards from the residue. *: point of attachment. Biotin = O=C1N[C@H]2[C@H](CS[C@H]2CCCCC(=O)*)N1; X1 = CN1C(=O)C[C@H](C(=O)*)[C@H]1c1cccnc1; PEG6 = NCCOCCOCCOCCOCCOCCOCCC(=O)O

How the values were obtained:
A549 xenograft tumor = A549 xenograft tumor growth; format: in vivo, Balb/c-nude mice; settings: intraperitoneally for five weeks, n=4/group
Procedure: Six-week-old female Balb/c-nude mice were subcutaneously injected with the A549 (1×10^7 cells) on the left and right flank of each mouse. When the tumor volume reached approximate 150 mm^3, all animals were randomly divided into three groups (n=4/group) and treated for five weeks. […] Then, three times dose of the drugs were injected thrice a week for the following three weeks. Palivizumab was used as an isotype control of the bispecific antibody. DMSO was used as a vehicle control of cotinine-duocarmycin. The tumor volume was measured using digital calipers twice a week in 32 days after injection. Tumor volume was calculated as length×(width)^2×0.5, where the length is the longest axis and the width is the distance perpendicular to the length. Systemic toxicity was evaluated by measuring body weight twice a week. Mice were sacrificed on the day 35 after injection and tumors were dissected and weighted.
To evaluate the in vivo efficacy of ERC6-complexed cotinine-duocarmycin, cetuximab-refractory A549 cells were grafted to mice (n=4/group). […] Drugs were administered to the mice twice a week for two weeks, and then thrice a week for three weeks.

A549 cells = test: Cell viability assay (Cell Titer-Glo, 72 hrs); format: cell-based, human; settings: ATP content
Procedure: A549 cells were seeded in 50 μL RPMI-1640 medium in black-walled 96-well plates (4,000 cells per well) and allowed to adhere overnight at 37° C. in 5% CO2 and humidified atmosphere. […] The cotinine-duocarmycin and antibody dilutes in 50 μL medium were added to each well, and cultured for 72 hrs. After adding Cell Titer-Glo reagent (Promega Corp.) to each well, luminescence signals were measured using a microplate luminometer (PerkinElmer, Waltham, Mass., USA) according to the manufacturer's instructions. All experiments were conducted in triplicate. The relative cell viability was calculated by dividing by the control luminescence signal [% viability=(Test−Background)/(Control−Background)×100].

[1] = test system: EGFR on the A549 cell surface; test: Flow cytometry on A549 cells; format: cell-based, human
Procedure: A549 cells were seeded in a v-bottom 96-well plate (Corning) in the final concentration of 4×10^5 cells per each sample. […] After washing with the flow cytometry buffer, the cells were cultured with phycoerythrin (PE)-conjugated streptavidin (BD Biosciences Pharminogen, San Diego, Calif., USA) and FITC-conjugated anti-human IgG (Fc specific) antibody (Thermo Fisher Scientific Pierce) in the dark for 1 hr at 37° C. After additional washing with the same buffer, the cells were resuspended in 200 μL PBS, and analyzed through flow cytometry using FACS Canto II instrument equipped with a 488-nm laser (BD Bioscience, San Jose, Calif., USA). 10,000 cells per measurement were detected and data were analyzed with FlowJo software (TreeStar, Ashland, Oreg., USA).

[2] = mouse, in vivo
Procedure: Blood samples were collected from intra-orbital vein at 0, 1, 24, 48, 72, 96 and 168 hrs post-injection. The samples were left at the room temperature for 2 hrs until the blood coagulated. Subsequently, serum was acquired by centrifuging at 3500 rpm for 15 min at 4° C.
After washing with 0.05% PBST, HRP-conjugated streptavidin (Thermo Fisher Scientific Pierce) was added and cultured for 1 hr at 37° C. After washing, TMB was added to each well and the absorbance was measured at 650 nm.

Compound	inhibition of tumor growth (A549 xenograft tumor)	cytotoxic / anti-proliferative effect (relative cell viability) (A549 cells)	binding activity of cotinine-biotin to A549 cell (streptavidin-PE signal) ([1]; ERC6 present)	binding activity of cotinine-biotin to A549 cell (streptavidin-PE signal) ([1]; mixture with anti-cotinine IgG)	binding activity of cotinine-biotin to A549 cell (streptavidin-PE signal) ([1]; mixture with cetuximab)	half-life [2]
cotinine-[GSK(duocarmycin)]4K-cotinine [cotinine-duocarmycin]	could not be selectively delivered to the tumor site and inhibit the tumor growth	potent anti-proliferative effect	–	–	–	–
CN1C(=O)C[C@H](C(=O)NCCCC[C@H](NC(=O)[C@H](CO)NC(=O)CNC(=O)CNC(=O)CNC(=O)CNC(=O)[C@H](CCCCNC(=O)CCOCCOCCOCCOCCOCCOCCNC(=O)CCCC[C@@H]2SC[C@@H]3NC(=O)N[C@@H]32)NC(=O)[C@H](CO)NC(=O)CNC(=O)CNC(=O)CNC(=O)CNC(=O)[C@H]2CC(=O)N(C)[C@@H]2c2cccnc2)C(=O)O)[C@H]1c1cccnc1 [cotinine-biotin, cotinine-GGGGSK[(dPEG6)-biotin]GGGGSK-cotinine] (X1-GGGGSK([PEG6-Biotin])GGGGSK(X1)-OH)	–	–	showed the binding activity to the A549 cell	did not produce any significant signal	did not produce any significant signal	33.4 min
COC(=O)c1cc2c([nH]1)C(=O)C=C1N(C(=O)c3cc4cc(OC)c(OC)c(OC)c4[nH]3)C[C@H]3C[C@]123 [free duocarmycin, duocarmycin, reference compound]	–	stronger anti-tumor effect than the cotinine-duocarmycin	–	–	–	–
